In test [1] the target is T1, Proto-oncogene tyrosine-protein kinase Src [251-533,T338C] (Gallus gallus, UniProt P00523, T338C).
T1 construct: 251-533
Description: In vitro Kinase Assay. The conditions noted are these: pH 8. The procedure:
(§1) In vitro kinase assays for c-Src variants were performed in 50 mM Tris (pH 8.0), 10 mM MgCl2 and 1 mg/mL BSA. When obtaining kinetic parameters (kcat, Km) kinase and peptide substrate (IYGEFKKK) (SEQ ID NO:51) concentrations were 2 nM and 500 μM, respectively, while ATP concentrations ranged from 2000-0.655 μM. Addition of nonradioactive ATP supplemented with 32P ATP (3,000 Ci/mmol, NEN) was used to initiate kinase reactions. Time points were selected such that product formation never exceeded 10%. Reactions were quenched by spotting 3 μL quantities onto phosphocellulose sheets (P81, Whatman). Afterwards, the sheets were washed 3×5 minutes in 0.5% phosphoric acid and dried. Radioactivity was measured by phosphorimaging and recorded on a Typhoon fluorescence imager (Molecular Dynamics).

Test [2] has as its target T2, Proto-oncogene tyrosine-protein kinase Src [251-533] (Gallus gallus, UniProt P00523).
T2 construct: 251-533
The experiment in a line: In vitro Kinase Assay. The settings on record: pH 8. The procedure:
as §1

A word on the IC50: it is the concentration needed to halve the response being measured. Low readings indicate higher potency, high ones lower potency. As for `CC(=O)c1cccc(Cc2nn(C(C)C)c3ncnc(N)c23)c1` [US9353116, 14], the IC50 in test [1] was 4520 nM; in test [2], > 5000 nM.

Turning to `C=CS(=O)(=O)Nc1ccc(Nc2ncnc3cc(OC)c(OC)cc23)cc1` [US9353116, 20], the half-inhibitory concentration (IC50) in test [1] amounted to 560 nM; in test [2], 2170 nM.

For the origin of these results see BindingDB's records for patent US9353116 (University of California, 2016).
